# From patent US20250098678A1, “METHOD OF CONTROLLING FUNGI” (UPL CORPORATION LIMITED, priority 2022, published 2025)
# Legend:
# [1] = system: Plasmopara halstedii; test: Anti-fungal activity of treated sunflower seeds against Plasmopara halstedii (seed treatment, % incidence); type: in vivo; conditions: for % Incidence: sunflower seed treatment, 12 DAS, inoculated with P. halstedii
# Experimental: Example 1: Evaluation of Anti-Fungal Activity of Sunflower Seeds Treated with Cyazofamid Against Plasmopara halstedii One tray for each treatment was filled with perlite that was covered with two layers of watered paper. Treated seeds were placed between the layers under sterile conditions and incubated at 22° C. to 24° C., 100% relative humidity (RH) for 48 h. Zoosporangia from cotyledons of sunflower plants previously infected by an isolate of P. halstedii were removed with deionized water. The suspension was filtered through two layers of sterile cheesecloth and the inoculum concentration was adjusted to 2×10^5 zoosporangia/ml. Treated and germinated seeds were immersed in the zoosporangial suspension for 5 hours. Bioassays were then designed and conducted under controlled growth conditions. Five pots per treatment were filled with perlite and nine sunflower seeds were sown in each pot. Plants were grown at 19° C., 70-100% relative humidity and a 10 h dark/14 h light photoperiod for 12 days. The seed arrangement was made as 50 seeds/plot (pot10×10 cm). The treatments used are depicted below. [table] The % incidence of fungal disease caused by Plasmapora halstedii was observed 12 DAS (days after sowing seeds).
# [2] = system: Pythium ultimum; test: Anti-fungal activity of treated seeds against Pythium ultimum (field trials, patch score); type: in vivo; conditions: for P. ultimum patch score: seed treatment, field trial
# Description: Example 2: Evaluation of Anti-Fungal Activity of Maize Seeds Treated with Cyazofamid Against Pythium ultimum The present inventors have determined the % pathogen control of Pythium ultimum control in […] treated with cyazofamid in field trials. The treatments employed and the results have been depicted in table 3 below. [table]
smiles,measurement,setting,value
COCC(=O)N(c1c(C)cccc1C)C(C)C(=O)OC (centres unmarked) [Metalaxyl],% Incidence,[1]; application rate 35 g/100/kg,53.49%
same,% Incidence,[1]; application rate 60 g/100/kg,62.24%
same,occurrence of fungal disease,"[1]; treated sunflower seeds, result in words",high
"Cc1ccc(-c2c(Cl)nc(C#N)n2S(=O)(=O)N(C)C)cc1 [Cyazofamid, 4-chloro-2-cyano-N,N-dimethyl-5-p-tolylimidazole-1-sulfonamide]",% Incidence,[1]; application rate 50 g/100/kg,0%
same,% Incidence,[1]; application rate 100 g/100/kg,0%
same,P. ultimum patch score indicating the severity of the fungal disease,"[2]; compared to the untreated control, result in words",significantly low
same,P. ultimum patch score,"[2]; 10 g.ai/100 kg, 25 ml/100 kg seeds",1.5 b
same,P. ultimum patch score,"[2]; 20 g.ai/100 kg, 50 ml/100 kg seeds",1.5 b
same,P. ultimum patch score,"[2]; 30 g.ai/100 kg, 75 ml/100 kg seeds",1.5 b
same,P. ultimum patch score,"[2]; 50 g.ai/100 kg, 125 ml/100 kg seeds",1.5 b
same,P. ultimum patch score,"[2]; 100 g.ai/100 kg, 250 ml/100 kg seeds",1.3 b
